Measurements as given in patent US9101726B2, “Stem cell immune modulation methods of use and apparatus” (The Board of Trustees of the University of Illinois, priority 2009, dated 2015).

How the values were obtained:
[1] = tested on: nitric oxide synthase; assay: Blocking of the inhibitory effect of stem cells on lymphocytes with nitric oxide synthase inhibitor; type: cell-based
[2] = tested on: CD4+CD25+CD62L+CD69+ Tregs; assay: Co-culture of PHA-stimulated lymphocytes with CB-SC in presence of CPM inhibitor and B1R antagonist; type: cell-based, human; settings: MGTA 10 μM, DALKD 2 μM
Description: To examine the cell-cell contacting effects and CPM and B1R contribution to immune modulation of CB-SC on human Tregs, we performed co-culture experiments in the presence of CPM specific inhibitor MGTA and B1R specific inhibitor DALKD. Lymphocytes plated in trans-wells served as controls. […] Data are representative of five experiments.

[3] = tested on: NO production in CB-SC; assay: Real time assay for NO production in CB-SC; type: cell-based, human
[4] = tested on: allogeneic lymphocytes; assay: Suppression of CB-SC on allogeneic lymphocytes in presence of inhibitors; type: cell-based, human
[5] = tested on: DNA methyltransferase (DNMT) activity of lymphocytes; assay: Regulation of DNA methyltransferase activity of lymphocytes by CB-SC-derived NO; type: cell-based
[6] = in combination with B1R activator DAKD

With `NC(=NCCC[C@H](N)C(=O)O)N[N+](=O)[O-]` [L-NNA, N-omega-nitro-L-arginine] the “inhibitory effect of stem cells mediated by nitric oxide (NO)” value [1] was “blocking”.
For [Des-Arg10, Leu9] kallidin [DALKD], the “positive percentage of CD4+CD25+CD62L+CD69+ Tregs” value [2] was “decrease” and the “NO production in CB-SC” value [3, 6] was “inhibited”.
`CC(=N)NCc1cccc(CN)c1` [1400 W] was tested, and the “suppression of CB-SC on allogeneic lymphocytes” value [4] was “reverse the suppression”, the “NO production in CB-SC” value [3, 6] was “inhibited” and the “epigenetic regulation on DNMT activity of lymphocytes by CB-SC-derived NO” value [5] was “significantly blocked”.
“des-Arg 10-bradykinin (KRPPGFSPF) [DAKD]” was tested, and the “NO production in CB-SC” value ([3]; agent alone) was “increased”.
